From ChEMBL document CHEMBL5523740, “Discovery of Potent and Selective c-Met Degraders for Hepatocellular Carcinoma Treatment” (J Med Chem, 2024)
Calls of active or inactive are those of the source. No cut-off for these calls is given here.

Columns and labels:
[1] = molecular target: T1, Hepatocyte growth factor receptor (Homo sapiens, UniProt P08581); assay: Induction of c-Met degradation in human MHCC97H cells incubated for 24 hrs by Western blotting analysis; assay type: cell-based
[2] = molecular target: T1, Hepatocyte growth factor receptor; assay: Induction of c-Met degradation in human MHCC97H cells at 500 nM by Western blotting analysis; assay type: cell-based; conditions: time 3-48 hrs, TDE = time-dependent effect
[3] = molecular target: T1, Hepatocyte growth factor receptor; assay: Induction of c-Met degradation in human Huh-7 cells incubated for 24 hrs by Western blotting analysis; assay type: cell-based; conditions: dose 63-100 nM
MHCC97H [4] = assay: Inhibition of cell growth in human MHCC97H cells incubated for 5 days by microplate reader assay; assay type: functional, cell-based; conditions: time 5.0 day
MHCC97H [5] = assay: Induction of cell cycle arrest in human MHCC97H cells assessed as accumulation of cells at G1 phase at 3 nM incubated for 24 hrs by PI staining based flow cytometry analysis (reference value: 70.4%); assay type: functional
MHCC97H [6] = assay: Induction of cell cycle arrest in human MHCC97H cells assessed as accumulation of cells at G1 phase at 10 nM incubated for 24 hrs by PI staining based flow cytometry analysis (reference value: 70.4%); assay type: functional
MHCC97H [7] = assay: Induction of cell cycle arrest in human MHCC97H cells assessed as accumulation of cells at G1 phase at 100 nM incubated for 24 hrs by PI staining based flow cytometry analysis (reference value: 70.4%); assay type: functional
MHCC97H [8] = assay: Induction of cell cycle arrest in human MHCC97H cells assessed as accumulation of cells at G2 phase at 100 nM incubated for 24 hrs by PI staining based flow cytometry analysis (reference value: 19.1%); assay type: functional
MHCC97H [9] = assay: Induction of apoptosis in human MHCC97H cells assessed as early apoptotic cells at 3 nM incubated for 24 hrs by Annexin-V-FITC/PI staining based flow cytometry analysis (reference value: 7.70%); assay type: functional
MHCC97H [10] = assay: Induction of apoptosis in human MHCC97H cells assessed as viable cells at 10 nM incubated for 24 hrs by Annexin-V-FITC/PI staining based flow cytometry analysis (reference value: 86.3%); assay type: functional; conditions: read-out: Activity
MHCC97H [11] = assay: Induction of apoptosis in human MHCC97H cells assessed as late apoptotic cells at 10 nM incubated for 24 hrs by Annexin-V-FITC/PI staining based flow cytometry analysis (reference value: 4.24%); assay type: functional
MHCC97H [12] = assay: Induction of apoptosis in human MHCC97H cells assessed as necrotic cells at 10 nM incubated for 24 hrs by Annexin-V-FITC/PI staining based flow cytometry analysis (reference value: 1.77%); assay type: functional
MHCC97H [13] = assay: Induction of apoptosis in human MHCC97H cells assessed as viable cells at 100 nM incubated for 24 hrs by Annexin-V-FITC/PI staining based flow cytometry analysis (reference value: 86.3%); assay type: functional; conditions: read-out: Activity
MHCC97H [14] = assay: Induction of apoptosis in human MHCC97H cells assessed as early apoptotic cells at 100 nM incubated for 24 hrs by Annexin-V-FITC/PI staining based flow cytometry analysis (reference value: 7.70%); assay type: functional
MHCC97H [15] = assay: Induction of apoptosis in human MHCC97H cells assessed as necrotic cells incubated for 24 hrs by Annexin-V-FITC/PI staining based flow cytometry analysis; assay type: functional, cell-based; conditions: dose 3-100 nM
MHCC97H [16] = assay: Antitumor activity against human MHCC97H cells xenografted in BALB/c mouse assessed as tumor growth inhibition at 10 mg/kg, ip qd for 22 days and measured every 2 days; assay type: functional; conditions: 528 h, time 22 day, read-out: TGI
MHCC97H [17] = assay: Antitumor activity against human MHCC97H cells xenografted in BALB/c mouse assessed as tumor growth inhibition at 20 mg/kg, po qd for 22 days and measured every 2 days; assay type: functional; conditions: 528 h, time 22 day, read-out: TGI
MHCC97H [18] = assay: Antitumor activity against human MHCC97H cells xenografted in BALB/c mouse assessed as reduction in tumor positive cells at 10 mg/kg, ip qd for 22 days and measured every 2 days by Ki67 staining based analysis; assay type: functional, organism-based; conditions: time 22.0 day
[19] = Toxicity in BALB/c mouse xenografted with human MHCC97H cells assessed as reduction in body weight at 10 mg/kg, ip qd for 22 days and measured every 2 days; assay type: organism-based; conditions: in vivo, 528 h, time 22 day
[20] = Toxicity in BALB/c mouse xenografted with human MHCC97H cells assessed as reduction in body weight at 20 mg/kg, po qd for 22 days and measured every 2 days; assay type: organism-based; conditions: in vivo, 528 h, time 22 day
[21] = Toxicity in BALB/c mouse xenografted with human MHCC97H cells assessed as lung lesions at 10 mg/kg, ip qd for 22 days and measured every 2 days by H and E staining based assay; assay type: organism-based; conditions: in vivo, 528 h, time 22 day
[22] = Toxicity in BALB/c mouse xenografted with human MHCC97H cells assessed as spleen lesions at 10 mg/kg, ip qd for 22 days and measured every 2 days by H and E staining based assay; assay type: organism-based; conditions: in vivo, 528 h, time 22 day
[23] = Toxicity in BALB/c mouse xenografted with human MHCC97H cells assessed as heart lesions at 10 mg/kg, ip qd for 22 days and measured every 2 days by H and E staining based assay; assay type: organism-based; conditions: in vivo, 528 h, time 22 day
[24] = Toxicity in BALB/c mouse xenografted with human MHCC97H cells assessed as lung lesions at 20 mg/kg, po qd for 22 days and measured every 2 days by H and E staining based assay; assay type: organism-based; conditions: in vivo, 528 h, time 22 day
Mus musculus [25] = assay: Downregulation of phosphorylated c-Met level in BALB/c mouse tumor xenografted with human MHCC97H cells at 20 mg/kg, po qd for 22 days and measured every 2 days by Western blotting analysis; assay type: functional, organism-based; conditions: time 22.0 day
Mus musculus [26] = assay: Downregulation of c-Met protein level in BALB/c mouse tumor xenografted with human MHCC97H cells at 20 mg/kg, po qd for 22 days and measured every 2 days by Western blotting analysis; assay type: functional, organism-based; conditions: time 22.0 day
[27] = AUC(0 to infinity) in Sprague-Dawley rat at 1 mg/kg, iv by LC-MS/MS method; assay type: ADME, organism-based; conditions: in vivo
[28] = Cmax in Sprague-Dawley rat at 1 mg/kg, iv by LC-MS/MS method; assay type: ADME, organism-based; conditions: in vivo
[29] = Mean residence time (0 to infinity) in Sprague-Dawley rat at 1 mg/kg, iv by LC-MS/MS method; assay type: ADME, organism-based; conditions: in vivo
[30] = Tmax in Sprague-Dawley rat at 1 mg/kg, iv by LC-MS/MS method; assay type: ADME, organism-based; conditions: in vivo
[31] = Clearance in Sprague-Dawley rat at 1 mg/kg, iv by LC-MS/MS method; assay type: ADME, organism-based; conditions: in vivo
[32] = AUC(0 to infinity) in Sprague-Dawley rat at 10 mg/kg, po by LC-MS/MS method; assay type: ADME, organism-based; conditions: in vivo
[33] = Mean residence time (0 to infinity) in Sprague-Dawley rat at 10 mg/kg, po by LC-MS/MS method; assay type: ADME, organism-based; conditions: in vivo
[34] = Half-life in Sprague-Dawley rat at 10 mg/kg, po by LC-MS/MS method; assay type: ADME, organism-based; conditions: in vivo
[35] = Oral bioavailability in Sprague-Dawley rat at 10 mg/kg by LC-MS/MS method; assay type: ADME, organism-based; conditions: in vivo
BaF3 [36] = assay: Antiproliferative activity against mouse BaF3 cells harboring TPR-MET D1228N mutant fusion protein incubated for 72 hrs by CellTiter-Glo reagent based assay; assay type: functional, cell-based; conditions: BaF3, 72 h
BaF3 [37] = assay: Antiproliferative activity against mouse BaF3 cells harboring TPR-MET Y1230H mutant fusion protein incubated for 72 hrs by CellTiter-Glo reagent based assay; assay type: functional, cell-based; conditions: BaF3, 72 h

T1 sequence (P08581 whole entry): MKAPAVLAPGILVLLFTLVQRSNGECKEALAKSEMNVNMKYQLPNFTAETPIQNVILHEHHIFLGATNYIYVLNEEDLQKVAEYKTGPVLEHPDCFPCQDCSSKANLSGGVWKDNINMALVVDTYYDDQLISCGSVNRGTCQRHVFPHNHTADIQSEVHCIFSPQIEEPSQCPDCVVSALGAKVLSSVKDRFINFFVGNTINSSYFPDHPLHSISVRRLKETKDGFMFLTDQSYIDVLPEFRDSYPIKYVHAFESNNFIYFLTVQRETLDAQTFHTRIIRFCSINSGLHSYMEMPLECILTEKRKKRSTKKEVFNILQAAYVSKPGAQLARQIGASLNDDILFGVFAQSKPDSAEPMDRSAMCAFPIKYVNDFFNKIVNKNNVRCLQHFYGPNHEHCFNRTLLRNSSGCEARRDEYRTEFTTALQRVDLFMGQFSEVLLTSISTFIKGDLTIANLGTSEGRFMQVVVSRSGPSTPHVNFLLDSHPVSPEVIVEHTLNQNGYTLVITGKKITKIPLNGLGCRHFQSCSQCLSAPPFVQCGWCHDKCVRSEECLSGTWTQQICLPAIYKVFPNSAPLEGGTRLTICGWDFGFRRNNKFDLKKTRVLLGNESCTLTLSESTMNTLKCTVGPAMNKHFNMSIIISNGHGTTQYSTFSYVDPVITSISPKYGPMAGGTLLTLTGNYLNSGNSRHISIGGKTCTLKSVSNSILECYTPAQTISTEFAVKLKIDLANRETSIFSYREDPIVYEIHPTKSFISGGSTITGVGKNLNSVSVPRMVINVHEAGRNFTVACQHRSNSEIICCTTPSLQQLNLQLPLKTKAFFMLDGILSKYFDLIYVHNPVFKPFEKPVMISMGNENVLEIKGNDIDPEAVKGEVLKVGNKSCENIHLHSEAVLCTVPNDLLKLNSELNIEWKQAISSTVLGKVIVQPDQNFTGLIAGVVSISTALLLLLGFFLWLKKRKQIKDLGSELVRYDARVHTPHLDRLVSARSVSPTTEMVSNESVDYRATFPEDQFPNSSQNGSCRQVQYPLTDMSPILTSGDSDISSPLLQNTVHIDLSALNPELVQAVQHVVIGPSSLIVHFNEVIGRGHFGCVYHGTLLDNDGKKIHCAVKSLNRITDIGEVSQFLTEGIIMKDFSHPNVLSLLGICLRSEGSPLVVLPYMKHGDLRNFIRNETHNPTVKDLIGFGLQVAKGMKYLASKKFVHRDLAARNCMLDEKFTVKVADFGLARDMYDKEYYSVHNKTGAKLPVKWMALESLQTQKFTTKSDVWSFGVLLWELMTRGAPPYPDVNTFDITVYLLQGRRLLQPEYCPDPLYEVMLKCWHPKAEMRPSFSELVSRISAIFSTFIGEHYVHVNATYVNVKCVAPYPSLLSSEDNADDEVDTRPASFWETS

With `N#Cc1cccc(-c2ccc(=O)n(Cc3cccc(-c4ncc(OCC5CCN(CCCCCC(=O)NCC67CC8CC(CC(C8)C6)C7)CC5)cn4)c3)n2)c1` the DC50 [1] was 226 nM, the Activity ([1]; dose 63-100 nM) was “Dose-Dependent Effect” and the Activity [2] was “Tde”. For the same compound, the Activity [3] was “Dose-Dependent Effect”, the inhibition (MHCC97H [4]) was “Active” and the Activity (MHCC97H [5]) was 74.6%. It also gave an Activity (MHCC97H [6]) of 77.6%, an Activity (MHCC97H [7]) of 79.1% and an Activity (MHCC97H [8]) of 13.6%. The Activity (MHCC97H [9]) was 16%, the viability at 0.01 µM (MHCC97H [10]) was 72.7% and the Activity (MHCC97H [11]) was 6.18%. It also gave an Activity (MHCC97H [12]) of 1.4%, a viability at 0.1 µM (MHCC97H [13]) of 52.7% and an Activity (MHCC97H [14]) of 39.9%. The Activity (MHCC97H [15]) was “Dose-Dependent Effect”, the inhibition in vivo at 10 mg/kg (MHCC97H [16]) was 61.5% and the inhibition in vivo at 20 mg/kg (MHCC97H [17]) was 52.5%. For the same compound, the Activity (MHCC97H [18]) was “Active”, the Activity [19] was “Non-Toxic” and the Activity [20] was “Non-Toxic”. The Activity [21] was “Non-Toxic”, the Activity [22] was “Non-Toxic” and the Activity [23] was “Non-Toxic”. The Activity [24] was “Non-Toxic”, the Activity (Mus musculus [25]) was “Active” and the Activity (Mus musculus [26]) was “Active”. The AUC(0-inf) [27] was 994 ng·h/mL, the Cmax [28] was 1630 ng/mL and the MRT inf [29] was 3.86 h. For the same compound, the Tmax [30] was 4.98 min, the clearance [31] was 17.5 mL/min/kg and the AUC(0-inf) [32] was 74.5 ng·h/mL. For the same compound, the MRT inf [33] was 3.73 h, the half-life [34] was 2.57 h and the bioavailability [35] was 0.8%. It also gave an IC50 (BaF3 [36]) of 463 nM and an IC50 (BaF3 [37]) of 378 nM.
